The test system of test [1] is MDRAB CCARM 12035. It is filed as cell-based, multidrug-resistant Acinetobacter baumanii. Conditions: broth microdilution, 37°C, 16 h, three independent experiments in triplicate, SD 14.0%. (In general: In broth dilution the organism is exposed to a series of concentrations in liquid medium.)
The test system of test [2] is MRSA CCARM 3108. The format is cell-based, Methicillin-resistant S. aureus. Conditions: MRSA CCARM 3108; broth microdilution, 37°C, 16 h; three independent experiments in triplicate, SD 14.0%.
From the text: (§1) Escherichia coli KCTC 1682, E. coli KCTC 2593, E. coli KCTC 2571, Salmonella typhimurium KCTC 1926, Pseudomonas aeruginosa KCTC 1637, P. aeruginosa KCTC 2004, P. aeruginosa KCTC 2513, Bacillus subtilis KCTC 3068, B. subtilis KCTC 1021, B. subtilis KCTC 1022, Staphylococcus epidermidis KCTC 1917, Staphylococcus aureus KCTC 1621, S. aureus KCTC 1916, and S. aureus KCTC 3881 were purchased from the Korean Collection for Type Cultures, Korea Research Institute of Bioscience & Biotechnology (Taejon, Korea). Methicillin-resistant S. aureus (MRSA) (CCARM 3089, CCARM 3090, CCARM 3108, CCARM 3114, and CCARM 3126), multidrug-resistant E. coli (MDREC) (CCARM 1229 and CCARM 1238), multidrug-resistant S. typhimurium (MDRST) (CCARM 8003, CCARM 8007, and CCARM 8009), multidrug-resistant Acinetobacter baumanii (MDRAB) (CCARM 12005, CCARM 12035, CCARM 12036, CCARM 12037), and multidrug-resistant P. aeruginosa (MDRPA) (CCARM 2002, CCARM 2003, CCARM 2095, and CCARM 2163) were obtained from the Culture Collection of Antibiotic-Resistant Microbes (CCARM) at Seoul Women’s University in Korea. The antimicrobial activities of the peptides against selected organisms, including three Gram-positive, three Gram-negative, and five antibiotic-resistant bacteria, were determined using a broth microdilution assay. Briefly, single colonies of bacteria and fungi were inoculated into Luria-Bertani (LB) medium and cultured overnight at 37°C. An aliquot of the culture was transferred to 10 mL of fresh LB and incubated for an additional 3–5 h at 37°C until it reached the mid-logarithmic phase. Two-fold serial dilutions of the peptides in 1% peptone were prepared. The serial dilutions (100 µL) were added to 100 µL of cells (2×10^6 colony-forming units (CFU)/mL) in 96-well microtiter plates and incubated at 37°C for 16 h. […] MIC values were calculated as the average of triplicate measurements from three independent assays.
For test [3], the system named is MDREC CCARM 1229. It is filed as cell-based, multidrug-resistant E. coli. Conditions: broth microdilution, 37°C, 16 h, three independent experiments in triplicate, SD 14.0%.
Method: (§2) The antimicrobial activities of the peptides against selected organisms, including three Gram-positive, three Gram-negative, and five antibiotic-resistant bacteria, were determined using a broth microdilution assay. Briefly, single colonies of bacteria and fungi were inoculated into Luria-Bertani (LB) medium and cultured overnight at 37°C. An aliquot of the culture was transferred to 10 mL of fresh LB and incubated for an additional 3–5 h at 37°C until it reached the mid-logarithmic phase. Two-fold serial dilutions of the peptides in 1% peptone were prepared. The serial dilutions (100 µL) were added to 100 µL of cells (2×10^6 colony-forming units (CFU)/mL) in 96-well microtiter plates and incubated at 37°C for 16 h. […] MIC values were calculated as the average of triplicate measurements from three independent assays.
Test [4] deals with MDRPA CCARM 2163. The format is cell-based, multidrug-resistant P. aeruginosa. Conditions: broth microdilution, 37°C, 16 h, three independent experiments in triplicate, SD 14.0%.
Test [5] has as its system B. subtilis KCTC1022. The format is cell-based, Bacillus subtilis. As to conditions: B. subtilis KCTC1022; broth microdilution, 37°C, 16 h; three independent experiments in triplicate, SD 14.0%.
Method: as §2
The test system of test [6] is MRSA CCARM 3090. It is filed as cell-based, Methicillin-resistant S. aureus. As to conditions: MRSA CCARM 3090; broth microdilution, 37°C, 16 h; three independent experiments in triplicate, SD 14.0%.
From the text: as §1
Test [7] relates to S. aureus KCTC1916. It is filed as cell-based, Staphylococcus aureus. As to conditions: S. aureus KCTC1916; broth microdilution, 37°C, 16 h; three independent experiments in triplicate, SD 14.0%.
Method: as §2
Test [8] has as its system Standard bacterial strains. It is filed as cell-based. Conditions: average over the 14 standard bacterial strains of Table 2.
In test [9] the test system is P. aeruginosa KCTC2004. It is filed as cell-based, Pseudomonas aeruginosa. Conditions: P. aeruginosa KCTC2004; broth microdilution, 37°C, 16 h; three independent experiments in triplicate, SD 14.0%.
Test [10] deals with MRSA CCARM3089. The format is cell-based, Methicillin-resistant S. aureus. As to conditions: MRSA CCARM3089; broth microdilution, 37°C, 16 h; three independent experiments in triplicate, SD 14.0%.
For test [11], the system named is E. coli KCTC1682. It is filed as cell-based, Escherichia coli. As to conditions: E. coli KCTC1682; broth microdilution, 37°C, 16 h; three independent experiments in triplicate, SD 14.0%.
Test [12] has as its system B. subtilis KCTC1021. It is filed as cell-based, Bacillus subtilis. Conditions: B. subtilis KCTC1021; broth microdilution, 37°C, 16 h; three independent experiments in triplicate, SD 14.0%.
Method: as §2
For test [13], the system named is MDRAB CCARM 12005. It is filed as cell-based, multidrug-resistant Acinetobacter baumanii. As to conditions: broth microdilution, 37°C, 16 h, three independent experiments in triplicate, SD 14.0%.
In test [14] the test system is Drug-resistant bacterial strains. Conditions: average over the 18 drug-resistant bacterial strains of Table 3. An outline of the steps: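 Broth microdilution: mid-log bacteria grown in LB, 2×10^6 CFU/mL, mixed 1:1 with two-fold peptide dilutions in 1% peptone, 16 h at 37°C. Strains include KCTC reference isolates and CCARM MRSA and multidrug-resistant E. coli, S. typhimurium, A. baumanii, P. aeruginosa; MIC averaged from triplicates over three independent assays.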

In test [15] the test system is MDRAB CCARM 12036. It is filed as cell-based, multidrug-resistant Acinetobacter baumanii. As to conditions: broth microdilution, 37°C, 16 h, three independent experiments in triplicate, SD 14.0%.
Method: as §2
Test [16] has as its system S. aureus KCTC3881. The format is cell-based, Staphylococcus aureus. Conditions: S. aureus KCTC3881; broth microdilution, 37°C, 16 h; three independent experiments in triplicate, SD 14.0%.
The subject of test [17] is MDRST CCARM 8003. It is filed as cell-based, multidrug-resistant S. typhimurium. Conditions: broth microdilution, 37°C, 16 h, three independent experiments in triplicate, SD 14.0%.
From the text: as §1
The test system of test [18] is B. subtilis KCTC3068. The format is cell-based, Bacillus subtilis. Conditions: B. subtilis KCTC3068; broth microdilution, 37°C, 16 h; three independent experiments in triplicate, SD 14.0%.
Method: as §2
The test system of test [19] is MRSA CCARM 3114. The format is cell-based, Methicillin-resistant S. aureus. Conditions: MRSA CCARM 3114; broth microdilution, 37°C, 16 h; three independent experiments in triplicate, SD 14.0%.
From the text: as §1
The test system of test [20] is E.coli KCTC2571. The format is cell-based, Escherichia coli. As to conditions: E.coli KCTC2571; broth microdilution, 37°C, 16 h; three independent experiments in triplicate, SD 14.0%.

Where no end group is shown, it is not given here.

A word on the MIC: it is the smallest concentration in the dilution series that meets the test's criterion for growth inhibition. The low end stands for inhibition by little substance, the high end for a need for much substance. For “FFHHIFRGIVHVGKTIHRLVTG [Pis-1, reference compound]”, the MIC is 2.0 µM in test [1]; 4.0 µM in test [2]; 4.0 µM in test [3]; 2.0 µM in [4]; 1.0 µM in test [5]; 8.0 µM in test [6]. Moreover, the MIC in test [7] stood at 1.0 µM; in [9] it was 2.0 µM; in [10], 8.0 µM; in [11], 1.0 µM; in [12], 2.0 µM; in test [13], 2.0 µM. Moreover, the MIC in [15] came to 2.0 µM; in [16], 2.0 µM; in test [17], 4.0 µM; in test [18] it was 1.0 µM; in test [19], 4.0 µM; in [20], 1.0 µM. For the same sequence, the results for the “Average MIC” value in test [8] and in test [14] were 1.5 µM and 3.6 µM, respectively.
